Results on 3 compounds are retold here after PubChem BioAssay AID1259407 (Chemical Carcinogenesis Research Information System (CCRIS), 2018).

In this data set the test system is CCRIS mutagenicity, Ames/micronucleus/aberration tests. In words: CCRIS mutagenicity studies.
The mark [1] stands for this setting: Test System: AMES SALMONELLA TYPHIMURIUM, Strain/Indicator: TA98, Metabolic Activation: RAT, LIVER, S-9, AROCLOR 1254, Method: STANDARD PLATE.
The mark [2] stands for this setting: Test System: AMES SALMONELLA TYPHIMURIUM, Strain/Indicator: TA100, Metabolic Activation: RAT, LIVER, S-9, AROCLOR 1254, Method: STANDARD PLATE.

The source made the active and inactive calls. The rule behind the calls is not given here.

On to `Fc1c(F)c(Cl)c(F)c(Cl)c1F`, for which the mutagenic call runs as follows: (Test System: AMES SALMONELLA TYPHIMURIUM, Strain/Indicator: TA98, Metabolic Activation: NONE, Method: PREINCUBATION) “inactive; negative”; (Test System: AMES SALMONELLA TYPHIMURIUM, Strain/Indicator: TA98, Metabolic Activation: RAT, LIVER, S-9, AROCLOR 1254, Method: PREINCUBATION) “inactive; negative”; (Test System: AMES SALMONELLA TYPHIMURIUM, Strain/Indicator: TA100, Metabolic Activation: NONE, Method: PREINCUBATION) “inactive; negative”; (Test System: AMES SALMONELLA TYPHIMURIUM, Strain/Indicator: TA100, Metabolic Activation: RAT, LIVER, S-9, AROCLOR 1254, Method: PREINCUBATION) “inactive; negative”; (Test System: AMES SALMONELLA TYPHIMURIUM, Strain/Indicator: TA1535, Metabolic Activation: NONE, Method: PREINCUBATION) “inactive; negative”; (Test System: AMES SALMONELLA TYPHIMURIUM, Strain/Indicator: TA1535, Metabolic Activation: RAT, LIVER, S-9, AROCLOR 1254, Method: PREINCUBATION) “inactive; negative”. For the same compound, the mutagenic call reads like this: (Test System: AMES SALMONELLA TYPHIMURIUM, Strain/Indicator: TA1537, Metabolic Activation: NONE, Method: PREINCUBATION) “inactive; negative”; (Test System: AMES SALMONELLA TYPHIMURIUM, Strain/Indicator: TA1537, Metabolic Activation: RAT, LIVER, S-9, AROCLOR 1254, Method: PREINCUBATION) “inactive; negative”; (Test System: AMES SALMONELLA TYPHIMURIUM, Strain/Indicator: TA1538, Metabolic Activation: NONE, Method: PREINCUBATION) “inactive; negative”; (Test System: AMES SALMONELLA TYPHIMURIUM, Strain/Indicator: TA1538, Metabolic Activation: RAT, LIVER, S-9, AROCLOR 1254, Method: PREINCUBATION) “inactive; negative”; (Test System: CHINESE HAMSTER OVARY, Strain/Indicator: CHO-K1-BH4 (HGPRT)/6-THIOGUANINE, Metabolic Activation: NONE, Method: SUSPENSION/PLATE) “inactive; negative”; (Test System: CHINESE HAMSTER OVARY, Strain/Indicator: CHO-K1-BH4 (HGPRT)/6-THIOGUANINE, Metabolic Activation: RAT, LIVER, S-9, AROCLOR 1254, Method: SUSPENSION/PLATE) “inactive; negative”.

As to `Nc1nc2cc(Cl)c(Cl)cc2s1`, the mutagenic call by setting is: (Test System: AMES SALMONELLA TYPHIMURIUM, Strain/Indicator: TA98, Metabolic Activation: HAMSTER, LIVER, S-9, AROCLOR 1254, Method: STANDARD PLATE) “inactive; negative”; (Test System: AMES SALMONELLA TYPHIMURIUM, Strain/Indicator: TA98, Metabolic Activation: NONE, Method: STANDARD PLATE) “inactive; negative”; under setting [1], “inactive; negative”; (Test System: AMES SALMONELLA TYPHIMURIUM, Strain/Indicator: TA100, Metabolic Activation: HAMSTER, LIVER, S-9, AROCLOR 1254, Method: STANDARD PLATE) “inactive; negative”; (Test System: AMES SALMONELLA TYPHIMURIUM, Strain/Indicator: TA100, Metabolic Activation: NONE, Method: STANDARD PLATE) “inactive; negative”; under setting [2], “inactive; negative”. Besides, the mutagenic call was “inactive; negative” (Test System: AMES SALMONELLA TYPHIMURIUM, Strain/Indicator: TA1535, Metabolic Activation: HAMSTER, LIVER, S-9, AROCLOR 1254, Method: STANDARD PLATE); “inactive; negative” (Test System: AMES SALMONELLA TYPHIMURIUM, Strain/Indicator: TA1535, Metabolic Activation: NONE, Method: STANDARD PLATE); “inactive; negative” (Test System: AMES SALMONELLA TYPHIMURIUM, Strain/Indicator: TA1535, Metabolic Activation: RAT, LIVER, S-9, AROCLOR 1254, Method: STANDARD PLATE); “inactive; negative” (Test System: AMES SALMONELLA TYPHIMURIUM, Strain/Indicator: TA1537, Metabolic Activation: HAMSTER, LIVER, S-9, AROCLOR 1254, Method: STANDARD PLATE); “inactive; negative” (Test System: AMES SALMONELLA TYPHIMURIUM, Strain/Indicator: TA1537, Metabolic Activation: NONE, Method: STANDARD PLATE); “inactive; negative” (Test System: AMES SALMONELLA TYPHIMURIUM, Strain/Indicator: TA1537, Metabolic Activation: RAT, LIVER, S-9, AROCLOR 1254, Method: STANDARD PLATE). Also, the mutagenic call runs as follows: (Test System: AMES SALMONELLA TYPHIMURIUM, Strain/Indicator: TA1538, Metabolic Activation: HAMSTER, LIVER, S-9, AROCLOR 1254, Method: STANDARD PLATE) “inactive; negative”; (Test System: AMES SALMONELLA TYPHIMURIUM, Strain/Indicator: TA1538, Metabolic Activation: NONE, Method: STANDARD PLATE) “inactive; negative”; (Test System: AMES SALMONELLA TYPHIMURIUM, Strain/Indicator: TA1538, Metabolic Activation: RAT, LIVER, S-9, AROCLOR 1254, Method: STANDARD PLATE) “inactive; negative”; (Test System: MOUSE LYMPHOMA, Strain/Indicator: L5178Y (TK+/TK-), Metabolic Activation: NONE, Method: SUSPENSION/PLATE) “inactive; negative. reevaluation of results: negative”; (Test System: MOUSE LYMPHOMA, Strain/Indicator: L5178Y (TK+/TK-), Metabolic Activation: RAT, LIVER, S-9, AROCLOR 1254, Method: SUSPENSION/PLATE) “inactive; negative. reevaluation of results: negative”.

For the compound `c1ccc2c(c1)ccc1cc3cnccc3cc12`, the mutagenic call runs as follows: under setting [1], “active; positive”; under setting [2], “active; positive”.
